Test results taken from patent US20010041670A1, “Thrombospondin-binding region of histidine-rich glycoprotein and method of use” (priority 1999, published 2001).
Blank lines part the entries; values can stand above or below the substance they belong to.

Columns and labels:
[1] = target: T1, 125I-TSP-1 binding to HRGP (Homo sapiens, UniProt P07996); experiment: Solid phase binding assay, competition with CD36 fusion proteins; conditions: increasing concentrations of fusion protein
T1 construct: TSP-1 was purified from human platelet releasate; from tissue; host or cells: TSP-1 from human platelet releasate; HRGP from human plasma
T1 sequence (P07996 19-1170): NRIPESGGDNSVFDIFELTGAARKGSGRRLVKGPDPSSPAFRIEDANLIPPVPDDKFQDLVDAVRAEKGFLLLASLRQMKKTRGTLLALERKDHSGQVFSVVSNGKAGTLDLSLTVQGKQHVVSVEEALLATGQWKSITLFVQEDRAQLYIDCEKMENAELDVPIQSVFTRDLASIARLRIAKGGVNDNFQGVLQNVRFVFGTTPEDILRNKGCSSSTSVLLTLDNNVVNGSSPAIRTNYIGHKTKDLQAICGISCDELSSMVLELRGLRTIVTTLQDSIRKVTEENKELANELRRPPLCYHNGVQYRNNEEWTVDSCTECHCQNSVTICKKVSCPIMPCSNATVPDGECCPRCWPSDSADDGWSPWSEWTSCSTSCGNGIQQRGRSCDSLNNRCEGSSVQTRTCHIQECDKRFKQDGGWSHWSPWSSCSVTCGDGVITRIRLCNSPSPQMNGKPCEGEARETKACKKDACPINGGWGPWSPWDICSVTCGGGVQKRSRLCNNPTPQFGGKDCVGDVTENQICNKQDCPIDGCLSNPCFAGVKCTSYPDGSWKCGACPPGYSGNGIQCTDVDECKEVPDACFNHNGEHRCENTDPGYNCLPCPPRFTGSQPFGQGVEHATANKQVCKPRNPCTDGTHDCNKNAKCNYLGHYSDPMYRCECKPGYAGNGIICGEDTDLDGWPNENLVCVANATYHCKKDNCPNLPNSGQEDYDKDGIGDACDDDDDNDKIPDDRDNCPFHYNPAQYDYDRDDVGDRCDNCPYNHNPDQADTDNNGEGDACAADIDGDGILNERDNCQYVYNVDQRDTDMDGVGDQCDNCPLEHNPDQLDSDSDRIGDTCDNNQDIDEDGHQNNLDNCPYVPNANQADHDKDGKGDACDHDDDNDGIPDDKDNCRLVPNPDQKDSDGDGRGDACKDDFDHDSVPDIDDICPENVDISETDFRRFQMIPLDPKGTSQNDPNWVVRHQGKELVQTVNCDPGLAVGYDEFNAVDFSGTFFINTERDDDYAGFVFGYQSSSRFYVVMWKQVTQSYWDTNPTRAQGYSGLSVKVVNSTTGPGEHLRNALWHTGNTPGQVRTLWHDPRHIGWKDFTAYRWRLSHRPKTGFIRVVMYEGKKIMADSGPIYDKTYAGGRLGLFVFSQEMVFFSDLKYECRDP
Method: Solid phase binding assays were performed as described (18). Briefly, HRGP in carbonate buffer was immobilized on 96-well strips (Immulon-4 Remove-a-well, Dynatech Laboratories Inc., Burlington, Mass., USA) overnight at 4° C. After blocking with 1% BSA, ^125I-TSP-1 was incubated in the presence of varying concentrations of CD36-FP in triplicate, and bound radioactivity was quantified on a gamma counter. Non-specific binding was determined by carrying out binding in the presence of excess unlabeled ligand.
TSP-1 binding to HRGP: competition with CD36.

binding of HRGP to TSP-1 = target: T2, binding of HRGP to TSP-1 (Homo sapiens, UniProt P04196); experiment: ELISA of HRGP binding to immobilized TSP-1 in presence of peptides; conditions: for inhibition of binding of HRGP to immobilized TSP-1: peptide 50 μM
T2 construct: from tissue; host or cells: HRGP from human plasma; TSP-1 from human platelet releasate
T2 sequence (P04196 19-525): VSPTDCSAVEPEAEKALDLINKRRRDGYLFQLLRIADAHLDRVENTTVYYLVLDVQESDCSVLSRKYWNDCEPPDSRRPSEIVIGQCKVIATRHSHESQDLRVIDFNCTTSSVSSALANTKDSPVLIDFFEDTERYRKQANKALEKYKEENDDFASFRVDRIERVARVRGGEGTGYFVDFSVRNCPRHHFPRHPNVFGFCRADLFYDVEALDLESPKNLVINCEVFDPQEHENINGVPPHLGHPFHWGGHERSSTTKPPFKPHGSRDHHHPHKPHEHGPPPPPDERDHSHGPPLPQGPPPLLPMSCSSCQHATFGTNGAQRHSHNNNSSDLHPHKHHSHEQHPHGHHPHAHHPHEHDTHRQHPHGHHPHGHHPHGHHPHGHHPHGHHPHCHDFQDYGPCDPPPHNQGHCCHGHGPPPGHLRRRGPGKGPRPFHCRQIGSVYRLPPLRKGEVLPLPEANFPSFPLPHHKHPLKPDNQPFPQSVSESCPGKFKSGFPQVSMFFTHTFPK
Method: (§1) Enzyme-linked immunosorbent assays (ELISA) were performed as described (6). Briefly, TSP-1 (4μg/ml) in coating buffer (0.5M sodium carbonate, pH 9.6) was applied to microtiter plates (Becton Dickinson, Lincoln Park, N.J., USA) for 3 hours at 37° C. After washing with wash buffer (0.05% Tween in 20 mM Tris, 150mM NaCl, pH 7.5), and blocking for 1 hour at 37° C. with 1% BSA in Tris-Tween, HRGP in varying amounts in the presence and absence of peptide was added for 18h at 4° C. After washing, alkaline phosphatase-conjugated anti-HRGP or nonimmune rabbit Fab'2 was added for 3h at 37° C., after which p-nitrophenyl phosphate substrate was added and optical density (OD) at 405 nm was read in a microplate reader (Molecular Devices, Menlo Park, Calif., USA).
(§2) HRGP or plasminogen binding to TSP-1 immobilized on plastic wells was measured by enzyme-linked immunosorbent assay (ELISA) as described above, using an alkaline phosphatase-conjugated anti-HRGP antibody and p-nitrophenyl phosphate substrate.
(§3) As an additional control, the binding of plasminogen to TSP-1 was measured.
Varying amounts of HRGP were added alone or in the presence of increasing concentrations of the peptide CSVTCG to TSP-1 coated wells. Binding was measured by ELISA as described above.

CD36 null mice = experiment: In vivo corneal angiogenesis assay, CD36 null mice
Method: (§4) FIG. 3. HRGP abrogates the effect of endogenous TSP in the corneal angiogenesis assay. Pellets containing bFGF at various doses with and without HRGP (50 ng) were implanted into the corneas of wild type C57BL/6 (closed symbols) or CD 36 null mice (open symbols), and area of neovascularization was measured after five days. HRGP (--●--) augmented the dose-dependent effect of bFGF (—▪—) in the wild type mice (p=0.0004 by ANOVA). In CD36 null mice, there was an enhanced dose response to bFGF (—□—) (p=0.01), but no effect seen with the addition of HRGP (--◯--). Results represent mean±SE of>6 replicates.
(§5) In vivo corneal angiogenesis assays. Pellets composed of hydron (Hydro Med Sciences, Cranbury, N.J.) and sucralfate (Teva Pharmaceuticals, North Wales, Pa.) were mixed with proteins or growth factors, and were prepared and implanted into the comeas of C57B1/6 mice as described (38). After 5 days, eyes were viewed under a dissecting microscope and photographed with a Sony DKC-1000 digital camera. The area of neovascularization was calculated by measuring vessel length from limbus towards the pellet and number of clock hours of vascularization as described (39, 40). Studies were approved by the Institutional Animal Use Committee.
In fact, the dose response curve of bFGF in wild type mice in the presence of HRGP was similar to that seen with bFGF alone in the CD36 null mice. […]

[2] = tested on: Human dermal microvascular EC (HMVEC); experiment: Endothelial cell chemotaxis assay (modified Boyden chamber); format: cell-based; conditions: TSP-1 2 nM; 3 separate experiments
Method: Endothelial Cell (EC) chemotaxis assays were performed as described using a modified Boyden chamber with 8 μm gelatin-coated membranes (22). Briefly, confluent flasks of HMVEC were grown in 0.1% MVGS overnight and plated at 3×10^4 cells per well on a gelatinized porous membrane (Osmonics, Minnetonka, Minn., USA). Reagents were added to wells and cells were allowed to migrate at 5% CO2, 37° C. for 4 hours. Membranes were stained and the number of cells migrating was counted. Results were expressed as the percentage of maximum cells migrating towards bFGF (38-113 cells/10 high power fields) minus the number of cells migrating in the absence of bFGF (4-13cells/10 hpf).
HRGP inhibits the anti-chemotactic effect of TSP-1. Because the type I repeat also mediates the interaction of TSP-1 with HRGP, we studied the effect of HRGP on angiogenesis. EC migration towards bFGF was measured using a modified Boyden chamber with an 8 μm gelatin-coated membrane in the presence and absence of TSP-1 (2 nM) and increasing concentrations of HRGP (0-100 nM). Data from 3 separate experiments are expressed as a percentage of migration in the presence of bFGF alone. We measured migration of CD36-expressing microvascular EC towards bFGF. The addition of TSP-1 inhibited bFGF-induced migration of EC (approx. 30%±3% of control 100% value without added TSP-1). […]

C57B1/6 mice = experiment: In vivo subcutaneous Matrigel plug assay
Method: In vivo subcutaneous Matrigel plug assays were performed as described (23). Briefly, 500 μl of Matrigel mixed with proteins or growth factors was injected subcutaneously near the abdominal midline of C57B1/6 mice. Gels were removed after 10 days, fixed in 1% paraformaldehyde, embedded in paraffin, sectioned, and stained with hematoxylin and eosin. Immunohistochemistry was performed on unstained sections using an anti-human von Willebrand factor (vWF) IgG (Dako, Glostrup, Denmark) or isotype-matched control (Sigma) and a biotin-streptavidin-peroxidase antibody and development system (Vector Laboratories, Burlingame, Calif.) as described (24) and counterstained with Mayer's hematoxylin (ImmunoGenex, San Ramon, Calif., USA). After scanning, the degree of angiogenesis was determined by counts of vWF-positive blood vessels using Scion Image. For breast tissue, frozen sections of freshly obtained human breast carcinoma were incubated with rabbit antibody to HRGP or CSVTCG or murine monoclonal antibody to TSP, or isotype-matched controls (Sigma), and developed as above. These studies were approved by the Institutional Animal Use Committee.
Matrigel mixed was injected subcutaneously into the midline of mice and resulting plugs were harvested after 10 days, fixed, and paraffin embedded, sectioned, stained with. hematoxylin and eosin, and photographed at 200× magnification. […]

[3] = tested on: Human dermal microvascular EC (HMVEC); experiment: Tube formation assay on Matrigel; format: cell-based; conditions: Matrigel
Method: Tube Formation Assay. Early passage (P2 or P3) HMVEC in 0.2% MVGS were grown on 150 μl of Matrigel (Becton Dickinson, Bedford, Mass., USA) at 3×10^4 cells per well of 48-well plates. Reagents were added and cells were incubated at 5% CO2, 37° C. for 24 hours then photographed. Images were scanned and number of branched structures was counted using Scion Image software (Frederick, Md., USA).
HRGP inhibits the anti-angiogenic effect of TSP-1 in vitro. Microvascular EC were grown on Matrigel under low serum concentrations (0.2%) in the presence of bFGF (2 ng/ml), conditions which are known to induce tube formation. […] The anti-angiogenic activity of TSP-1 was abolished by the addition of HRGP (15 nM), which restored the ability of the EC to form tubular structures. (c).

wild type C57BL/6 mice = experiment: In vivo corneal angiogenesis assay, wild type mice
Method: as §4, §5
In a second type of in vivo experiment, hydron/sucralfate pellets containing bFGF, TSP-1, and/or HRGP were implanted in the corneas of C57B1/6 mice. […]

[4] = target: T3, binding of radiolabelled HRGP to TSP-1 (Homo sapiens, UniProt P04196); experiment: Ligand blot of radiolabelled HRGP on TSP-1; conditions: autoradiography; CSVTCG peptide at 50 μM
T3 construct: TSP-1 was purified from human platelet releasate; from tissue; host or cells: HRGP from human plasma; TSP-1 from human platelet releasate
T3 sequence (P04196 19-525): T2 sequence (P04196 19-525)
Method: Ligand Blot: TSP-1 was resolved on an SDS-polyacrylamide gel and electrophoretically blotted onto a polyvinylidene difluoride (PVDF) membrane. The membrane was blocked with 150 mM NaCl, 20 mM Tris (TBS) containing 5% BSA. Following three washes with TBS, washes the membranes were cut into strips and incubated with ligand(s) diluted in TBS, 0.1% BSA for 1 hour, washed, and developed by autoradiography.
Ligand blots show binding of radiolabelled HRGP to TSP-1 that had been subjected to SDS-PAGE and transferred to nitrocellulose, then developed by autoradiography.

[5] = target: binding of plasminogen to TSP-1 (Homo sapiens, UniProt P00747); conditions: ELISA; control interaction
binding of plasminogen to TSP-1, sequence (P00747 20-810 limits assumed): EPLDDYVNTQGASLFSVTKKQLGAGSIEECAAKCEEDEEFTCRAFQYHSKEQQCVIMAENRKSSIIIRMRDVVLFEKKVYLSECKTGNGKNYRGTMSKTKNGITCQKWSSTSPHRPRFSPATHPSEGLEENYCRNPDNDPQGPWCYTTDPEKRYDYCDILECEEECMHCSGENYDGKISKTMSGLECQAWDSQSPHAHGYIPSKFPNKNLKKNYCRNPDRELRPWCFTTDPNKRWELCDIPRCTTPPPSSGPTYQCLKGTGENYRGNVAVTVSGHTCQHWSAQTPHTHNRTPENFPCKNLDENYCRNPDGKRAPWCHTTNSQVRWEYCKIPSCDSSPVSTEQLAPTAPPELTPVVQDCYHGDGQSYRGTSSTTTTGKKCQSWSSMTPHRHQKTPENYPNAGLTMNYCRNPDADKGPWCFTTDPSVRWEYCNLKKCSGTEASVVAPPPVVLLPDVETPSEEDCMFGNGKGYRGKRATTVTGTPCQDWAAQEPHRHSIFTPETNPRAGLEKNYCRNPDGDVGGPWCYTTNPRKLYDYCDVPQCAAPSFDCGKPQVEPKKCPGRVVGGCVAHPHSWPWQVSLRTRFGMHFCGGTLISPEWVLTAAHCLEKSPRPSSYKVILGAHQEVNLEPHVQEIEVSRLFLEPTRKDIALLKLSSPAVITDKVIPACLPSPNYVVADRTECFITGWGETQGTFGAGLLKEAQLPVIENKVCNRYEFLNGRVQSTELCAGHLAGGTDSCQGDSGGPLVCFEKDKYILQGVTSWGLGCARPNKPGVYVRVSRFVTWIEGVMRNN
Method: as §1, §2, §3

Substance: TSP-1: 450 kDa homotrimeric adhesive glycoprotein purified from human platelet releasate; inhibitor of angiogenesis
inhibition of bFGF-induced angiogenesis (CD36 null mice; CD36 null mice): did not inhibit
EC migration towards bFGF, percentage of control without added TSP-1 [2]: approx. 30%±3%
blood vessels/mm^2, % of that seen with bFGF (C57B1/6 mice; TSP-1 added to bFGF in Matrigel, 10 days): 14±8%
effect on bFGF-induced tube formation by EC ([3]; TSP-1 2 nM, bFGF 2 ng/ml, 0.2% serum): inhibited

Substance: bFGF: Recombinant human basic fibroblast growth factor
Area of Neovascularization (mm^2) ± SE (CD36 null mice; CD36 −/− mouse, corneal pellet, 5 days): 2.10 ± 0.14 mm^2
angiogenesis in Matrigel plug (histology) (C57B1/6 mice; plugs harvested after 10 days, representative images of 4 experiments): stimulated angiogenesis
induction of tube formation ([3]; agent alone, low serum): induced tube formation
Area of Neovascularization (mm^2) ± SE (wild type C57BL/6 mice; Wild type mouse, corneal pellet, 5 days): 2.35 ± 0.10 mm^2
eyes with vigorous outgrowth of blood vessels (angiogenesis) (wild type C57BL/6 mice; pellets: bFGF 50 ng, TSP-1 200 ng, HRGP 100 ng, after 5 days): 13/13

Substance: cysteine-serine-valine-threonine-cysteine-glycine [CSVTCG]
binding of radiolabelled HRGP to TSP-1 resolved on SDS-PAGE and blotted [4]: completely abolished
inhibition of binding of plasminogen to TSP-1 [5]: not inhibited
peptide concentration at which inhibition of HRGP binding to TSP-1 reached maximum (binding of HRGP to TSP-1; concentration-dependent inhibition): 50 µM
inhibition of binding of HRGP to immobilized TSP-1 (binding of HRGP to TSP-1): inhibited

Next, values leading:

inhibition of 125I-TSP-1 binding to immobilized HRGP [1]: inhibited
Substance: CD36 FP93-120: CD36-glutathione-S-transferase (GST) fusion protein shown to bind TSP-1 (YRVRFLAKENVTQDAEDNTVSFLQPNGA; left off: a dimerising Fc or GST)

inhibition of 125I-TSP-1 binding to immobilized HRGP [1]: had no effect
Substance: GST: glutathione-S-transferase alone, control

inhibition of binding of HRGP to immobilized TSP-1 (binding of HRGP to TSP-1): not and had no effect
Substance: RGDS: control TSP-1 peptide

inhibition of binding of HRGP to immobilized TSP-1 (binding of HRGP to TSP-1): not and had no effect
Substance: TVSGCC: scrambled peptide control
